These results are taken from patent publication US20220183287A1, “METHODS FOR KILLING PESTS” (The United States of America, as represented by the …, priority 2020, published 2022).

One data set relates to Heterodera glycines eggs. The data set can be described thus: Microwell assay: eggs immersed in compounds, hatch and activity of hatched J2. The settings on record: 0.1%. The format is in vivo. Here is the method: (§1) All chemicals were used without further purification.
(§2) These are reported as 0.1% herein.
(§3) The nematodes were then incubated at 26° C. […] Two trials were conducted for each assay.
(§4) The assumptions of the model were checked.

The subject of data set [1] is H. glycines second-stage juveniles. Description: Microwell assay: previously hatched J2 immersed in compounds, activity and viability. Here is the method:
The isolate of H. glycines race 3, originally isolated in Maryland, was maintained on soybean (Glycine max cv. ‘Essex’). As previously described (Wen, Y., et al. Plant Disease, 103: 2191-2198 (2019)), the roots were gently rubbed in water to dislodge cysts and mature females. The egg suspensions were then poured through nested sieves (#20 over /#60; pore sizes 850 μm and 250 μm diam., respectively) into a 454 g/liter sucrose solution. After 15 min, the cysts and females and cysts that floated to the top were collected, rinsed in water, and crushed with a rubber stopper on a #60 sieve (250-μm diam. pore size) that was partially submerged in distilled water. The egg suspension was washed through nested #230 over #500 sieves (pore sizes 63 μm and 25-μm diam., respectively). The eggs were collected in distilled water, and J2 hatched as described above.
(§5) Compounds for the studies were purchased from three different companies: methyl benzoate, CAS Number 93-58-3, ≥99% purity; Tween 20, CAS Number: 9005-64-5; Tween 80, CAS Number: 9005-65-6; ethyl benzoate, CAS Number: 93-89-0, natural, ≥99% purity, FCC, FG; vinyl benzoate, CAS Number: 769-78-8, ≥99% purity; n-propyl benzoate, CAS Number: 2315-68-6, 99% purity; n-butyl benzoate, CAS Number: 136-60-7, 99% purity; benzyl benzoate, CAS Number: 120-51-4, natural, ≥99% purity, FCC, FG; methyl 2-methylbenzoate, CAS Number: 89-71-4, 99% purity; methyl 2-chlorobenzoate, CAS Number: 610-96-8, ≥98% purity; methyl 2-methoxybenzoate, CAS Number: 606-45-1, 99% purity and methyl 2-nitrobenzoate, CAS Number: 606-27-9, 98% purity were purchased from Sigma-Aldrich (St. Louis, Mo.). Compounds, iso-butyl benzoate, CAS Number 120-50-3, >98% purity; n-pentyl benzoate, CAS Number: 2049-96-9, ≥98% purity; and n-hexyl benzoate, CAS Number: 6789-88-4, ≥98% purity were purchased from Alfa Aesar (Tewksbury, Mass.). The compounds methyl 3-methoxybenzoate (methyl m-anisate), CAS Number: 5368-81-0; 97% and methyl 3-methylbenzoate (methyl m-toluate), CAS Number: 99-36-5, 97% purity were purchased from TCI America (Portland, Oreg.). All chemicals were used without further purification. Deionized water (DI) containing 1% emulsifier (v/v), Tween 20 and Tween 80, at 1:1 ratio was used to make different VOCs (volatile organic compounds) water solutions and also used as blank control.
(§6) For tests with individual compounds, the concentration of each compound was 0.1% before placement into wells; the final concentration in the wells was 0.095% after addition to eggs or J2 suspended in water. These are reported as 0.1% herein. An exception was Trial 2, M. incognita J2 activity and viability (Table 2): the final concentration was 0.1% after placement in wells. Low concentrations were selected for assays of combined compounds to determine if the combinations would increase nematotoxicity.
(§7) Laboratory assays were conducted in 96-well polystyrene plates following general procedures described in Wen et al. (2019). Each well received approximately 35 J2 (for previously hatched J2 assays) or 35 eggs that each contained either a first-stage juvenile (J1) or a J2. The plates were covered with plastic adhesive sealing film (Excel Scientific, Inc., Victorville Calif.) and then with the plate lids. Parafilm (Bemis, Neenah, Wis.) was used to seal the plates. The nematodes were then incubated at 26° C. […] Following the counts on Day 2, the treatments were removed and the J2 rinsed twice with SDW and incubated in the second rinse. […] Two trials were conducted for each assay.
Statistical analyses: The data were analyzed as either a general linear model using JMP or a generalized linear model for the best distribution to fit the residual using Proc Glimmix (Sas Institute). The assumptions of the model were checked. If not met, then appropriate statistical techniques were used so that data could met the assumptions of the models. In Sas, mean comparisons were done with Sidak adjusted p-values to hold the experiment-wise error at 0.05.

A further data set relates to Caenorhabditis elegans. Conditions: produced by Bacillus nematocida; cited from earlier work.
For data set [2], the system named is M. incognita second-stage juveniles. The data set can be described thus: Microwell assay: previously hatched J2 immersed in compounds, activity and viability. Here is the method: Nematode cultures: As described in Meyer et al. (Meyer, S. L. F., et al., Nematropica, 46: 85-96 (2016)), M. incognita race 1 (originally isolated in Maryland) was maintained in a greenhouse (24° to 29° C.; natural and supplemental lighting combined for a 16-h daylength) on susceptible cayenne pepper (Capsicum annuum) TA-136′ plants. All greenhouse experiments described herein were conducted under the same conditions. Two to three months after pepper plant inoculation, egg masses were picked from roots. Eggs were separated by 5 min immersion in 0.6% sodium hypochlorite, followed by a rinse in sterile distilled water (SDW). To collect second-stage juveniles (J2) for microwell assays, the surface-sterilized eggs were placed in a hatching chamber (Spectra/Mesh Nylon Filter, openings 25-μm-diam.; Spectrum Laboratories Inc., Rancho Dominguez, Calif.) set in an autoclaved dish that was placed on a rotary shaker for 3 days at 35 rpm. For some M. incognita and H. glycines assays, 25 or […] kanamycin monosulfate (Phytotechnology Laboratories, Shawnee Mission, Kans.) was added to the hatching chamber to prevent growth of bacteria. The collected J2 were then rinsed with water to remove the kanamycin monosulfate.
as §5, §6, §7

The next data set deals with M. incognita eggs. Description: Microwell assay: eggs immersed in compounds, hatch and activity of hatched J2. The data set is classed as in vivo, Meloidogyne incognita. The settings on record: 0.1%. The protocol: as §1, §2, §3, §4
A further data set concerns X americanum adults. Conditions: in vivo; cited from earlier work.
Another data set deals with M. incognita. The settings on record: in vivo; cited from earlier work.
The subject of another data set is C. elegans. The settings on record: during the first hours of incubation; cited from earlier work.
The mark [3] stands for this setting: hatched J2 per well, about 35 eggs per well.
Where [4] appears, read: 0.1%, previously hatched J2 in aqueous solution.

Marks after values point to notes of the source that are not given here.

Consider `O=C(OCc1ccccc1)c1ccccc1` [BB, Benzyl benzoate], for which the “% Active Day 2” value with Heterodera glycines eggs (J2 hatched from immersed eggs) is given as 15.2 ^cd %; in data set [1] (setting [4]) it was 60.1 ^abc %; in data set [2] (setting [4]) it was 83.1 ^a %; in the data set on M. incognita eggs (J2 hatched from immersed eggs), 67.0 ^ab %. Further, the “% Active Day 5” value in the data set with Heterodera glycines eggs (J2 hatched from immersed eggs) is recorded as 17.0 ^cde %; with M. incognita eggs (J2 hatched from immersed eggs), 33.5 ^cd %. Besides, the “% Active Day 7” value in the data set with Heterodera glycines eggs (J2 hatched from immersed eggs) was 13.5 ^bc %; in the data set on M. incognita eggs (J2 hatched from immersed eggs), 24.8 ^b %. Further, the figures for the “Hatch Day 2” value with Heterodera glycines eggs (setting [3]) and with M. incognita eggs (setting [3]) were 4.1 ^cd and 2.6 ^cd, respectively. Also, the “Hatch Day 5” value in the data set on Heterodera glycines eggs (setting [3]) is 4.5 ^cd; with M. incognita eggs (setting [3]), 4.2 ^cde. The “Hatch Day 7” value with Heterodera glycines eggs (setting [3]) is reported as 4.6 ^cd; in the data set with M. incognita eggs (setting [3]), 4.1 ^de. Also, in the data set with Heterodera glycines eggs (Heterodera glycines, 168 h, Day 7, read-out: egg hatch suppression compared with the Tween control), the pest or weed control at 0.1 % is 64 to 80%. The “reduction in % viable J2 compared with the Tween control” value in data set [1] (0.1%, Day 3 following water rinse) was 33%. Also, the “% Active Day 1” value in data set [1] (setting [4]) is on record as 66.4 ^bc %; in data set [2] (setting [4]), 83.2 ^a %. The viability at 0.1 % is 41.2% in data set [1] (Heterodera glycines, 72 h, read-out: % Viable Day 3 rinsed) and 79.9% in data set [2] (Meloidogyne incognita, 72 h, read-out: % Viable Day 3 rinsed). In addition, the nematode attraction entry in the data set on Caenorhabditis elegans is “nematode attractant”. The “% Viable Day 3 rinsed” value in data set [2] (0.1%, after Day 2 water rinse) was “did not show a significant difference”.

As for `CC(=O)c1c(O)cc(O)c(C(C)=O)c1O` [DAPG, 2,4-diacetylphloroglucinol], in the data set on X americanum adults, the toxicity to adults entry was “toxic”. Also, in the data set with M. incognita, the egg hatch entry is “decreased egg hatch”. Moreover, in the data set with C. elegans, the hatch result is recorded as “stimulated hatch”.
